Experimental data taken from US20030078251A1, “Benzoxazepinones and their use as squalene synthase inhibitors” (priority 2000, published 2003).

Row | SMILES | melting point
1 | COc1cccc([C@@H]2O[C@@H](CC(=O)NCCc3occc3C(=O)O)C(=O)N(CC(C)(C)CO)c3ccc(Cl)cc32)c1OC [Example 119, 2-[2-[[[(3S,5R)-7-Chloro-5-(2,3-dimethoxyphenyl)-1-(3-hydroxy-2,2-dimethylpropyl)-2-oxo-1,2,3,5-tetrahydro-4,1-benzoxazepin-3-yl]acetyl]amino]ethyl]furan-3-carboxylic acid] | 123 to 126 °C
2 | COc1cccc([C@H]2O[C@H](CC(=O)Nc3ccc4[nH]c(C(=O)O)cc4c3)C(=O)N(CC(C)(C)CO)c3ccc(Cl)cc32)c1OC [Example 157] | 200.5 to 200.6 °C
3 | COc1cccc([C@H]2O[C@H](CC(=O)Nc3ccc(CC(=O)O)cc3)C(=O)N(CC(C)(C)CO)c3ccc(Cl)cc32)c1OC [Example 31, 4-[[(3R,5S)-7-chloro-5-(2,3-dimethoxyphenyl)-1-(3-hydroxy-2,2-dimethylpropyl)-2-oxo-1,2,3,5-tetrahydro-4,1-benzoxazepin-3-yl]acetyl]aminophenylacetic acid] | 142 to 144 °C
4 | COc1cccc([C@H]2O[C@H](CC(=O)Nc3ncc(CCC(=O)O)s3)C(=O)N(CC(C)(C)CO)c3ccc(Cl)cc32)c1OC [Example 144, 3-[2-[[[(3R,5S)-7-Chloro-5-(2,3-dimethoxyphenyl)-1-(3-hydroxy-2,2-dimethylpropyl)-2-oxo-1,2,3,5-tetrahydro-4,1-benzoxazepin-3-yl]acetyl]amino]-1,3-thiazol-5-yl]propionic Acid] | 203 to 205 °C
5 | COc1cccc([C@H]2O[C@H](CC(=O)Nc3ccc4oc(C(=O)O)c(OCC(=O)O)c4c3)C(=O)N(CC(C)(C)CO)c3ccc(Cl)cc32)c1OC [Example 155, 5-[[[(3R,5S)-7-chloro-5-(2,3-dimethoxyphenyl)-1-(3-hydroxy-2,2-dimethylpropyl)-2-oxo-1,2,3,5-tetrahydro-4,1-benzoxazepin-3-yl]acetyl]amino]-3-[(carboxymethyl)oxy]-1-benzofuran-2-carboxylic acid] | 193 to 195.5 °C
6 | COc1cccc([C@H]2O[C@H](CC(=O)NCCc3oc(C(=O)O)cc3C(=O)O)C(=O)N(CC(C)(C)CO)c3ccc(Cl)cc32)c1OC [Example 28, 5-[2-[[[(3R,5S)-7-chloro-5-(2,3-dimethoxyphenyl)-1(2,2-dimethyl-3-hydroxypropyl)-2-oxo-1,2,3,5-tetrahydro-4,1-benzoxazepin-3-yl]acetyl]amino]ethyl]furan-2,4-dicarboxylic acid] | 155 to 157 °C
7 | COc1cccc([C@H]2O[C@H](CC(=O)Nc3cc(CCCCC(=O)O)ccc3F)C(=O)N(CC(C)(C)CO)c3ccc(Cl)cc32)c1OC [Example 108, 5-[3-[[[(3R,5S)-7-Chloro-5-(2,3-dimethoxyphenyl)-1-(3-hydroxy-2,2-dimethylpropyl)-2-oxo-1,2,3,5-tetrahydro-4,1-benzoxazepin-3-yl]acetyl]amino]-4-fluorophenyl]pentanoic acid] | 115 to 118 °C
8 | COc1cccc([C@H]2O[C@H](CC(=O)Nc3cccc(C(=O)O)c3C)C(=O)N(CC(C)(C)CO)c3ccc(Cl)cc32)c1OC [Example 43, 3-[[[(3R,5S)-7-chloro-5-(2,3-dimethoxyphenyl)-1-(3-hydoroxy-2-dimethylpropyl)-2-oxo-1,2,3,5-tetrahydro-4,1-benzoxazepin-3-yl]acetyl]amino]-2-methylbenzoic acid] | 165 to 168 °C
9 | COc1cccc([C@H]2O[C@H](CC(=O)Nc3cc(C(=O)O)ccc3F)C(=O)N(CC(C)(C)CO)c3ccc(Cl)cc32)c1OC [Example 106, 3-[[[(3R,5S)-7-Chloro-5-(2,3-dimethoxyphenyl)-1-(3-hydroxy-2,2-dimethylpropyl)-2-oxo-1,2,3,5-tetrahydro-4,1-benzoxazepin-3-yl]acetyl]amino]-4-fluorobenzoic acid] | 163 to 166 °C
10 | COc1cccc([C@H]2O[C@H](CC(=O)Nc3ccc(C(=O)O)o3)C(=O)N(CC(C)(C)CO)c3ccc(Cl)cc32)c1OC [Example 94, 5-[[(3R,5S)-7-Chloro-5-(2,3-dimethoxyphenyl)-1-(3-hydroxy-2,2-dimethylpropyl)-2-oxo-1,2,3,5-tetrahydro-4,1-benzoxazepin-3-yl]acetyl]amino-2-furancarboxylic acid] | 155 to 158 °C
11 | COc1cccc([C@H]2O[C@H](CC(=O)NCCCC(=O)O)C(=O)N(CC(C)(C)C)c3ccc(Cl)cc32)c1OC [Example 70, 4-[[(3R,5S)-7-chloro-5-(2,3-dimethoxyphenyl)-1-neopentyl-2-oxo-1,2,3,5-tetrahydro-4,1-benzoxazepin-3-yl]acetyl]aminobutanoic acid] | 128 to 130 °C
12 | COc1cccc([C@H]2O[C@H](CC(=O)NCCCOc3ccc(C(=O)O)cc3)C(=O)N(CC(C)(C)CO)c3ccc(Cl)cc32)c1OC [Example 98] | 138 to 139 °C
13 | COc1cccc([C@H]2O[C@H](CC(=O)Nc3ccc4oc(CCC(=O)O)cc4c3)C(=O)N(CC(C)(C)CO)c3ccc(Cl)cc32)c1OC [Example 159, 3-[5-[[[(3R,5S)-7-Chloro-5-(2,3-dimethoxyphenyl)-1-(3-hydroxy-2,2-dimethylpropyl)-2-oxo-1,2,3,5-tetrahydro-4,1-benzoxazepin-3-yl]acetyl]amino]-1-benzofuran-2-yl]propanoic acid] | 207 to 209 °C
14 | COc1cccc([C@H]2O[C@H](CC(=O)Nc3ccc(OC(F)(F)C(=O)O)cc3)C(=O)N(CC(C)(C)CO)c3ccc(Cl)cc32)c1OC [Example 132, 2-[4-[[[(3R,5S)-7-Chloro-5-(2,3-dimethoxyphenyl)-1-(3-hydroxy-2,2-dimethylpropyl)-2-oxo-1,2,3,5-tetrahydro-4,1-benzoxazepin-3-yl]acetyl]amino]phenyloxy]-2,2-difluoroacetic acid] | 149 to 150 °C
15 | COc1cccc([C@H]2O[C@H](CC(=O)Nc3ccc(OCCCc4ccccc4)c(CCC(=O)O)c3)C(=O)N(CC(C)(C)CO)c3ccc(Cl)cc32)c1OC [Example 124, 3-[5-[[[(3R,5S)-7-Chloro-5-(2,3-dimethoxyphenyl)-1-(3-hydroxy-2,2-dimethylpropyl)-2-oxo-1,2,3,5-tetrahydro-4,1-benzoxazepin-3-yl]acetyl]amino]-2-(3-phenylpropyloxy)phenyl]propionic Acid] | 147 to 149 °C
16 | COc1cccc([C@H]2O[C@H](CC(=O)Nc3ccc(C(=O)O)cc3C)C(=O)N(CC(C)(C)CO)c3ccc(Cl)cc32)c1OC [Example 48, 4-[[(3R,5S)-7-chloro-5-(2,3-dimethoxyphenyl)-1-(3-hydroxy-2,2-dimethylpropyl)-2-oxo-1,2,3,5-tetrahydro-4,1-benzoxazepin-3-yl]acetyl]amino-3-methylbenzoic acid] | 275 to 276 °C
17 | CCCc1cc(NC(=O)C[C@H]2O[C@H](c3cccc(OC)c3OC)c3cc(Cl)ccc3N(CC(C)(C)CO)C2=O)cc2cc(C(=O)O)oc12 [Example 163, 5-[[[(3R,5S)-7-Chloro-5-(2,3-dimethoxyphenyl)-1-(3-hydroxy-2,2-dimethylpropyl)-2-oxo-1,2,3,5-tetrahydro-4,1-benzoxazepin-3-yl]acetyl]amino]-7-propyl-1-benzofuran-2-carboxylic acid] | 198.5 to 199.5 °C
18 | COc1ccc(CC(=O)O)cc1NC(=O)C[C@H]1O[C@H](c2cccc(OC)c2OC)c2cc(Cl)ccc2N(CC(C)(C)CO)C1=O [Example 109] | 215 to 216 °C
19 | COc1cccc([C@H]2O[C@H](CC(=O)Nc3cccc4c(C(=O)O)cccc34)C(=O)N(CC(C)(C)CO)c3ccc(Cl)cc32)c1OC [Example 129, 5-[[2-[(3R,5S)-7-Chloro-5-(2,3-dimethoxyphenyl)-1-(3-hydroxy-2,2-dimethylpropyl)-2-oxo-1,2,3,5-tetrahydro-4,1-benzoxazepin-3-yl]acetyl]amino]-1-naphthoic acid] | 171 to 174 °C
20 | COc1cccc([C@H]2O[C@H](CC(=O)NCCc3ccc(OC(C)(C)C(=O)O)cc3)C(=O)N(CC(C)(C)CO)c3ccc(Cl)cc32)c1OC [Example 77, α-[4-[2-[[(3R,5S)-7-Chloro-5-(2,3-dimethoxyphenyl)-1-(3-hydroxy-2,2-dimethylpropyl)-2-oxo-1,2,3,5-tetrahydro-4,1-benzoxazepin-3-yl]acetyl]aminoethyl]phenyloxy]isobutanoic acid] | 209 to 211 °C
21 | COc1cccc([C@H]2O[C@H](CC(=O)Nc3ccc4[nH]c(SCC(=O)O)nc4c3)C(=O)N(CC(C)(C)CO)c3ccc(Cl)cc32)c1OC [Example 148, 2-[[5-[[[(3R,5S)-7-Chloro-5-(2,3-dimethoxyphenyl)-1-(3-hydroxy-2,2-dimethylpropyl)-2-oxo-1,2,3,5-tetrahydro-4,1-benzoxazepin-3-yl]acetyl]amino]-1H-benzimidazol-2-yl]sulfanyl]acetic acid] | 187.9 to 188.9 °C
22 | COc1cccc([C@H]2O[C@H](CC(=O)Nc3c(C)c(C)c4oc(C(=O)O)cc4c3C)C(=O)N(CC(C)(C)CO)c3ccc(Cl)cc32)c1OC [Example 164, 5-[[[(3R,5S)-7-Chloro-5-(2,3-dimethoxyphenyl)-1-(3-hydroxy-2,2-dimethylpropyl)-2-oxo-1,2,3,5-tetrahydro-4,1-benzoxazepin-3-yl]acetyl]amino]-4,6,7-trimethyl-1-benzofuran-2-carboxylic acid] | 246 to 248 °C
23 | COc1ccc(CCCCC(=O)O)cc1NC(=O)C[C@H]1O[C@H](c2cccc(OC)c2OC)c2cc(Cl)ccc2N(CC(C)(C)CO)C1=O [Example 139, 5-[3-[[2-[(3R,5S)-7-Chloro-5-(2,3-dimethoxyphenyl)-1-(3-hydroxy-2,2-dimethylpropyl)-2-oxo-1,2,3,5-tetrahydro-4,1-benzoxazepin-3-yl]acetyl]amino]-4-methoxyphenyl]pentanoic acid] | 136 to 138 °C
24 | COc1cccc([C@H]2O[C@H](CC(=O)Nc3cccc(C(=O)O)n3)C(=O)N(CC(C)(C)CO)c3ccc(Cl)cc32)c1OC [Example 140, 6-[[[(3R,5S)-5-(2,3-Dimethoxyphenyl)-7-chloro-1-(3-hydroxy-2,2-dimethylpropyl)-2-oxo-1,2,3,5-tetrahydro-4,1-benzoxazepin-3-yl]acetyl]amino]-2-pyridinecarboxylic acid] | 265 to 270 °C (dec.)
